Measurements: US12594258B2, “Inhibitors of MHC-I Nef downmodulation for treating HIV” (priority 2019, dated 2026)

Legend:
HIV Nef [1] = tested on: HIV Nef
HIV Nef [2] = assay: Nef activity in HIV-infected CD4+ T cells treated with plasma from CMA-injected mice; format: cell-based; conditions: plasma 30 minutes after injection, diluted 1:20
Description: FIG. 8F is a summary graph of flow cytometric data from experiments as in FIG. 1. Blood plasma was isolated from mice 30 minutes after injection with CMA, and CMA concentration was determined by mass spectrometry. Primary CD4+ T cells infected with HIV as in FIG. 1 were treated with 5% plasma from control mice spiked with known concentrations of CMA (standard curve) or with plasma from the CMA-injected mice diluted 1:20. Nef activity in cells receiving plasma from treated mice was compared to the standard curve based on the concentration of CMA as determined by mass spectrometry.
(§1) Mouse in vivo Assays. To further examine the tolerability of CMA, preliminary studies were performed in two groups of mice injected with different doses of CMA every other day for 18 days (FIG. 8A). […] In a separate experiment, plasma harvested from treated mice inhibited Nef in our in vitro assay (FIG. 8F). Taken together, these promising preliminary studies provide evidence that CMA is both efficacious and tolerable in vivo.

[3] = Mouse in vivo tolerability; set-up: species or system mice
Description: FIG. 8A is a schematic representation of experiments for FIG. 8B-D. Five mice per group received injections of CMA every 2 days for 10 doses. Blood plasma and lymph nodes were harvested from mice sacrificed 2 hours after the final injection.
as §1

AP-1:Nef:MHC-I complex = assay: HLA-A2 coimmunoprecipitation in CEM-A2 cells expressing Nef; format: cell-based; conditions: 1.25 nM, compared to NH4Cl
Description: Immunoprecipitation of CEM cell lysates with BB7.2-conjugated beads was performed as previously described. Briefly, 25×10^6 CEM-A2 cells were transduced with Nef-expressing or control adenovirus. 48 hours post-infection, cells were counted and resuspended at a density of 1×10^6 cells/mL R10 supplemented with 35 mM NH4Cl, 1.25 nM CMA, or solvent control for 24 hours. Cells were pelleted, washed twice in PBS, and lysed in 1% digitonin lysis buffer (1% digitonin (Wako, 043-21371), 100 mM NaCl, 50 mM Tris, pH 7.0, 1 mM CaCl2, and 1 mM MgCl2) as previously described. 1% of the lysate was removed for input controls. […] After pulldown, resin was washed five times in 0.1% digitonin wash buffer, and proteins were eluted by incubating in 150 mM dithiothreitol (Invitrogen) for 30 minutes at 37° C. and analyzed by western blot.
HLA-A2 Coimmunoprecipitation. […] Then, 48 h post infection, cells were counted and resuspended at a density of 1×10^6 cells per milliliter R10 supplemented with 35 mM NH4Cl, 1.25 nM CMA, or solvent control for 24 h. […] After pulldown, resin was washed five times in 0.1% digitonin wash buffer, and proteins were eluted by incubating in 150 mM dithiothreitol (DTT) for 30 min at 37° C. and analyzed by Western blot.

HIV Nef [4] = tested on: HIV Nef; remark: listed apart in the source

## C/C=C/[C@H]1O[C@@](O)([C@@H](C)[C@H](O)[C@H](C)[C@H]2OC(=O)/C(OC)=C/C(C)=C/[C@@H](C)[C@@H](O)[C@@H](CC)[C@@H](O)[C@H](C)C/C(C)=C/C=C/[C@@H]2OC)C[C@@H](O[C@H]2C[C@@H](O)[C@H](OC(N)=O)[C@@H](C)O2)[C@@H]1C [CMA, concanamycin A]
HIV Nef [1]; 2.5 nM and 0.5 nM
  restoration of CD4 to the cell surface of Nef-expressing cells: […]
  restoration of cell-surface MHC-I in Nef-expressing cells: […]
HIV Nef [1]; high dose (2.5 nM)
  Nef-mediated degradation of HLA-A2 and CD4 (Western blot): inhibited Nef-mediated degradation of both HLA-A2 and CD4
HIV Nef [1]; low dose (0.5 nM)
  degradation of CD4 (Western blot): did not prevent degradation of CD4
  degradation of MHC-I in Nef-expressing cells (Western blot): MHC-I was not degraded in Nef-expressing cells
HIV Nef [2]
  Nef inhibition by plasma harvested from treated mice: inhibited Nef
[3]; two doses, injected every other day for 18 days
  toxicity based on behavior, fur and weight loss: Neither dose showed toxicity
[3]; weighed prior to each dose
  body mass: no loss in body mass and no dose effect
AP-1:Nef:MHC-I complex
  abundance of Nef and AP-1 subunits associating with HLA-A2: […]
HIV Nef [4]; 0.25 nM, 24 hours
  MHC-I expression (BB7.2 and Bw4/Bw6) in cells infected with primary isolate 454Gag-GFP: […]
HIV Nef [4]; 0.5 nM, 24-h incubation, primary CD4+ T cells
  suppression of Nef activity: […]
HIV Nef [4]; cells infected with ΔGPE
  downmodulation of HLA-B*51:01 and HLA-B*07:02: […]
HIV Nef [4]; read-out: EC50 for Nef inhibition, HIV-infected primary CD4+ T cells, HLA-A2
  EC50: […]
